# Results: US10035805B2, “Tricyclic triazolic compounds” (LABORATORIOS DEL DR. ESTEVE S.A., priority 2014, dated 2018)
# Structures can show the parent of a compound that is named as a salt.
# Target: T1, sigma-1 receptor (Cavia porcellus, UniProt Q60492)
# T1 construct: Guinea pig brains were homogenized in 10 vols; (w/v) of Tris-HCl 50 mM 0.32 M sucrose; from tissue; host or cells: guinea pig brain membranes
# Assay: Sigma-1 receptor radioligand binding assay with [3H]-(+)-pentazocine in guinea pig brain membranes
# Conditions: radioligand [3H]-(+)-pentazocine at 5.0 nM, 150 min at 37° C., nonspecific binding with 1 μM haloperidol
# Protocol: Brain membrane preparation and binding assays for the al-receptor were performed as described (DeHaven-Hudkins, D. L., L. C. Fleissner, and F. Y. Ford-Rice, 1992, Characterization of the binding of [^3H](+)pentazocine to a recognition sites in guinea pig brain, Eur. J. Pharmacol. 227, 371-378) with some modifications. Guinea pig brains were homogenized in 10 vols. (w/v) of Tris-HCl 50 mM 0.32 M sucrose, pH 7.4, with a Kinematica Polytron PT 3000 at 15000 r.p.m. for 30 s. The homogenate was centrifuged at 1000 g for 10 min at 4° C. and the supernatants collected and centrifuged again at 48000 g for 15 min at 4° C. The pellet was resuspended in 10 volumes of Tris-HCl buffer (50 mM, pH 7.4), incubated at 37° C. for 30 min, and centrifuged at 48000 g for 20 min at 4° C. Following this, the pellet was resuspended in fresh Tris-HCl buffer (50 mM, pH 7.4) and stored on ice until use.
# The radioligand used was [^3H]-(+)-pentazocine at 5.0 nM and the final volume was 200 μl. The incubation was initiated with the addition of 100 μl of membrane at a final tissue concentration of approximately 5 mg tissue net weight/mL and the incubation time was 150 m. at 37° C. After incubation, the membranes were collected onto pretreated glass fiber filterplate (MultiScreen-FC, Millipore), with polyethylenimine 0.1%. The filters were washed two times with 200 μl of washing buffer (50 mM Tris Cl, pH=7.4) and then 25 μl of Ecoscint H liquid scintillation cocktail were added. Microplates were allowed to set for several hours and then quantified by liquid scintillation spectrophotometry (1450 Microbeta, Wallac). Nonspecific binding was determined with 1 μM haloperidol.
# T1 sequence (Q60492 whole entry): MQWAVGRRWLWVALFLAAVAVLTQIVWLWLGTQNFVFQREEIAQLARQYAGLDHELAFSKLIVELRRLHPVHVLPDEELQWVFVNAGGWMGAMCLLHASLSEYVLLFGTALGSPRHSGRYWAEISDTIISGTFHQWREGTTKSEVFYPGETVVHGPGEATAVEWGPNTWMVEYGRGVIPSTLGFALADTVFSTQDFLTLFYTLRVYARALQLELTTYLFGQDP
row,SMILES,Ki
1,"CC(=O)N1Cc2c(-c3ccccc3)nnn2[C@@H]2CN(Cc3ccccc3)C[C@H]21 (racemic) [Example 4, (rac) 1-((5a,8a-trans)-7-benzyl-3-phenyl-6,7,8,8a-tetrahydro-4H-pyrrolo[3,4-e][1,2,3]triazolo[1,5-a]pyrazin-5(5aH)-yl)ethanone hydrochloride]",100 to 500 nM
2,"CCCN1C(=O)c2c(-c3ccccc3)nnn2[C@@H]2CN(Cc3ccccc3)C[C@@H]21 (racemic) [Example 5, (rac)-(5a,8a-cis)-7-benzyl-3-phenyl-5-propyl-5,5a,6,7,8,8a-hexahydro-4H-pyrrolo[3,4-e][1,2,3]triazolo[1,5-a]pyrazin-4-one]",> 500 nM
3,"CC(C)(C)OC(=O)N1Cc2c(-c3ccccc3)nnn2[C@@H]2CNC[C@H]21 (racemic) [Example 6, (rac)-(5a,8a-trans)-tert-butyl-3-phenyl-6,7,8,8a-tetrahydro-4H-pyrrolo[3,4-e][1,2,3]triazolo[1,5-a]pyrazine-5(5aH)-carboxylate]",> 500 nM
4,"CC(C)(C)OC(=O)N1Cc2c(-c3ccccc3)nnn2[C@@H]2CN(Cc3ccc(F)cc3)C[C@H]21 (racemic) [Example 7, (rac)-(5a,8a-trans)-tert-butyl-7-(4-fluorobenzyl)-3-phenyl-6,7,8,8a-tetrahydro-4H-pyrrolo[3,4-e][1,2,3]triazolo[1,5-a]pyrazine-5(5aH)-carboxylate]",> 500 nM
5,"CCCN1Cc2c(-c3ccccc3)nnn2[C@@H]2CN(Cc3ccccc3)C[C@H]21 (racemic) [Example 9, (rac) (5a,8a-trans)-7-benzyl-3-phenyl-5-propyl-5,5a,6,7,8,8a-hexahydro-4H-pyrrolo[3,4-e][1,2,3]triazolo[1,5-a]pyrazine hydrochloride]",< 100 nM
6,"CCCN1Cc2c(-c3ccccc3)nnn2[C@@H]2CNC[C@H]21 (racemic) [Example 10, (rac) (5a,8a-trans)-3-phenyl-5-propyl-5,5a,6,7,8,8a-hexahydro-4H-pyrrolo[3,4-e][1,2,3]triazolo[1,5-a]pyrazine hydrochloride]",> 500 nM
7,"CCCCCN1C[C@@H]2[C@@H](C1)n1nnc(-c3ccccc3)c1CN2CCC (racemic) [Example 11, (rac) (5a,8a-trans)-7-pentyl-3-phenyl-5-propyl-5,5a,6,7,8,8a-hexahydro-4H-pyrrolo[3,4-e][1,2,3]triazolo[1,5-a]pyrazine hydrochloride]",< 100 nM
8,"CCCN1Cc2c(-c3ccccc3)nnn2[C@@H]2CN(Cc3ccccc3)C[C@@H]21 (racemic) [Example 13, (rac) (5a,8a-cis)-7-benzyl-3-phenyl-5-propyl-5,5a,6,7,8,8a-hexahydro-4H-pyrrolo[3,4-e][1,2,3]triazolo[1,5-a]pyrazine]",100 to 500 nM
9,"CCCCCN1C[C@@H]2NCc3c(-c4ccccc4)nnn3[C@@H]2C1 (racemic) [Example 14, (rac) (5a,8a-cis)-7-pentyl-3-phenyl-5,5a,6,7,8,8a-hexahydro-4H-pyrrolo[3,4-e][1,2,3]triazolo[1,5-a]pyrazine]",< 100 nM
10,"CCC(=O)N1Cc2c(-c3ccccc3)nnn2[C@@H]2CN(Cc3ccccc3)C[C@H]21 (racemic) [Example 17, (rac) 1-((5a,8a-trans)-7-benzyl-3-phenyl-6,7,8,8a-tetrahydro-4H-pyrrolo[3,4-e][1,2,3]triazolo[1,5-a]pyrazin-5(5aH)-yl)propan-1-one hydrochloride]",100 to 500 nM
11,"c1ccc(-c2nnn3c2CN[C@@H]2CN(CC4CC4)C[C@H]23)cc1 (racemic) [Example 18, (rac) (5a,8a-trans)-7-(cyclopropyl-methyl)-3-phenyl-5,5a,6,7,8,8a-hexahydro-4H-pyrrolo[3,4-e][1,2,3]triazolo[1,5-a]pyrazine hydrochloride]",100 to 500 nM
12,"c1ccc(-c2nnn3c2CN[C@@H]2CN(C4CCOCC4)C[C@H]23)cc1 (racemic) [Example 19, (rac) (5a,8a-trans)-3-phenyl-7-(tetrahydro-2H-pyran-4-yl)-5,5a,6,7,8,8a-hexahydro-4H-pyrrolo[3,4-e][1,2,3]triazolo[1,5-a]pyrazine hydrochloride]",> 500 nM
13,"CS(=O)(=O)N1Cc2c(-c3ccccc3)nnn2[C@@H]2CN(Cc3ccccc3)C[C@H]21 (racemic) [Example 20, (rac) (5a,8a-trans)-7-benzyl-5-(methylsulfonyl)-3-phenyl-5,5a,6,7,8,8a-hexahydro-4H-pyrrolo[3,4-e][1,2,3]triazolo[1,5-a]pyrazine hydrochloride]",100 to 500 nM
14,"CCCN1CCc2c(-c3ccccc3)nnn2[C@@H]2CN(Cc3ccccc3)C[C@@H]21 (racemic) [Example 31, (rac) (6a,9a-cis)-8-benzyl-3-phenyl-6-propyl-4,5,6,6a,7,8,9,9a-octahydropyrrolo[3,4-b][1,2,3]triazolo[1,5-d][1,4]diazepine hydrochloride]",< 100 nM
15,"c1ccc(CN2C[C@@H]3[C@H](C2)N(CC2CC2)CCc2c(-c4ccccc4)nnn23)cc1 (racemic) [Example 32, (rac) (6a,9a-cis)-8-benzyl-6-(cyclopropylmethyl)-3-phenyl-4,5,6,6a,7,8,9,9a-octahydropyrrolo[3,4-b][1,2,3]triazolo[1,5-d][1,4]diazepine hydrochloride]",< 100 nM
16,"CCC(=O)N1CCc2c(-c3ccccc3)nnn2[C@@H]2CN(Cc3ccccc3)C[C@@H]21 (racemic) [Example 33, (rac) 1-((6a,9a-cis)-8-benzyl-3-phenyl-4,5,7,8,9,9a-hexahydropyrrolo[3,4-b][1,2,3]triazolo[1,5-d][1,4]diazepin-6(6aH)-yl)propan-1-one hydrochloride]",100 to 500 nM
17,"O=C1N[C@H]2CNC[C@H]2n2nnc(-c3ccccc3)c21 (racemic) [Example 36, (rac)-(5a,8a-cis)-3-phenyl-5,5a,6,7,8,8a-hexahydro-4H-pyrrolo[3,4-e][1,2,3]triazolo[1,5-a]pyrazin-4-one hydrochloride]",> 500 nM
18,"CN1C(=O)c2c(-c3ccccc3)nnn2[C@@H]2CN(Cc3ccccc3)C[C@@H]21 (racemic) [Example 37, (rac)-(5a,8a-cis)-7-benzyl-5-methyl-3-phenyl-5,5a,6,7,8,8a-hexahydro-4H-pyrrolo[3,4-e][1,2,3]triazolo[1,5-a]pyrazin-4-one]",> 500 nM

# Now from value to compound:
row,Ki,SMILES
1,< 100 nM,"c1ccc(CN2C[C@@H]3[C@@H](C2)NCc2c(-c4ccccc4)nnn23)cc1 (racemic) [Example 1, (rac) (5a,8a-trans)-7-benzyl-3-phenyl-5,5a,6,7,8,8a-hexahydro-4H-pyrrolo[3,4-e][1,2,3]triazolo[1,5-a]pyrazine, hydrochloride]"
2,> 500 nM,"O=C1N[C@H]2CN(Cc3ccccc3)C[C@H]2n2nnc(-c3ccccc3)c21 (racemic) [Example 2, (rac)-(5a,8a-cis)-7-benzyl-3-phenyl-5,5a,6,7,8,8a-hexahydro-4H-pyrrolo[3,4-e][1,2,3]triazolo[1,5-a]pyrazin-4-one]"
3,100 to 500 nM,"c1ccc(CN2C[C@@H]3NCc4c(-c5ccccc5)nnn4[C@@H]3C2)cc1 (racemic) [Example 3, (rac) (5a,8a-cis)-7-benzyl-3-phenyl-5,5a,6,7,8,8a-hexahydro-4H-pyrrolo[3,4-e][1,2,3]triazolo[1,5-a]pyrazine]"
4,< 100 nM,"Fc1ccc(CN2C[C@@H]3[C@@H](C2)NCc2c(-c4ccccc4)nnn23)cc1 (racemic) [Example 8, (rac) (5a,8a-trans)-7-(4-fluorobenzyl)-3-phenyl-5,5a,6,7,8,8a-hexahydro-4H-pyrrolo[3,4-e][1,2,3]triazolo[1,5-a]pyrazine hydrochloride]"
5,< 100 nM,"CN1Cc2c(-c3ccccc3)nnn2[C@@H]2CN(Cc3ccccc3)C[C@@H]21 (racemic) [Example 12, (rac) (5a,8a-cis)-7-benzyl-5-methyl-3-phenyl-5,5a,6,7,8,8a-hexahydro-4H-pyrrolo[3,4-e][1,2,3]triazolo[1,5-a]pyrazine]"
6,< 100 nM,"CN1Cc2c(-c3ccccc3)nnn2[C@@H]2CN(Cc3ccccc3)C[C@H]21 (racemic) [Example 16, (rac) (5a,8a-trans)-7-benzyl-5-methyl-3-phenyl-5,5a,6,7,8,8a-hexahydro-4H-pyrrolo[3,4-e][1,2,3]triazolo[1,5-a]pyrazine hydrochloride]"
7,< 100 nM,"Fc1ccccc1-c1nnn2c1CN[C@@H]1CN(Cc3ccccc3)C[C@H]12 (racemic) [Example 28, (rac) (5a,8a-trans)-7-benzyl-3-(2-fluorophenyl)-5,5a,6,7,8,8a-hexahydro-4H-pyrrolo[3,4-e][1,2,3]triazolo[1,5-a]pyrazine hydrochloride]"
8,< 100 nM,"c1ccc(CN2C[C@@H]3NCCc4c(-c5ccccc5)nnn4[C@@H]3C2)cc1 (racemic) [Example 30, (rac) (6a,9a-cis)-8-benzyl-3-phenyl-4,5,6,6a,7,8,9,9a-octahydropyrrolo[3,4-b][1,2,3]triazolo[1,5-d][1,4]diazepine hydrochloride]"
9,< 100 nM,"c1ccc(CN2C[C@@H]3NCc4c(-c5ccccc5)nnn4[C@@H]3C2)cc1 [Example 15, (5aS,8aR)-7-benzyl-3-phenyl-5,5a,6,7,8,8a-hexahydro-4H-pyrrolo[3,4-e][1,2,3]triazolo[1,5-a]pyrazine]"
